Results reported in patent US20090220562A1, “Osteogenic and anti-adipogenic oxysterols” (priority 2005, published 2009).

Key:
Format in all cases: cell-based, mouse
osteocalcin mRNA = experiment: Northern blotting for osteocalcin mRNA in M2-10B4 cells; settings: for synergy with oxysterols in induction of osteocalcin: BMP 50 ng/ml with 22S+20S (SS, 2.5 μM)
Procedure: RNA isolation and Northern blot analysis—Following treatment of cells under appropriate experimental conditions, total RNA was isolated using the RNA isolation kit from Stratagene (La Jolla, Calif., U.S.A.). Total RNA ([…]) was run on a 1% agarose/formaldehyde gel and transferred to Duralon-UV membranes (Strategene, CA, U.S.A.) and cross-linked with UV light. The membranes were hybridized overnight at 60 degree C. with ^32P-labeled mouse osteocalcin cDNA probe, mouse lipoprotein lipase (LPL), mouse adipocyte protein 2 (aP^2) PCR-generated probes, human 28S or 18S rRNA probes obtained from Geneka Biotechnology (Montreal, Quebec, Canada) and Maxim Biotech (San Francisco, Calif., U.S.A.), respectively. The PCR products were generated using primer sets synthesized by Invitrogen (Carlsbad, Calif., U.S.A.) with the following specifications: mouse aP2 gene (accession no. M13261); sense (75-95) 5′-[…]-3′, antisense (362-383) 5′-[…]-3′, generating a PCR product of 309 base pairs. Mouse LPL (accession no. XM—134193); sense (1038-1058) 5′-[…]-3′, antisense (1816-1836) 5′-[…]-3′, generating a PCR product of 799 base pairs. The PCR products were gel-purified and sequenced by the UCLA sequencing core, showing the highest similarity to their respective GenBank entries. Following hybridization, the blots were washed twice at room temperature with 2×SSC+0.1% SDS, and then twice at 60 degree C. with 0.5×SSC+0.1% SDS, and exposed to X-ray film. The extent of gene induction was determined by densitometry.
After 4 and 8 days, total RNA from duplicate samples was isolated and analyzed for osteocalcin (Osc) and 28S rRNA expression by Northern blotting as described. FIG. 3E is a radiogram of Northern blotting for osteocalcin mRNA in M2 cells exposed to a control or combination of oxysterols for 4 or 8 days. FIG. 3F is a bar graph depicting the relative demsometric units of osteocalcin mRNA in M2 cells exposed to a control or combination of oxysterols for 4 -or 8 days. Data from densitometric analysis of the Northern blot is shown in (F) as the average of duplicate samples, normalized to 28S rRNA.
(§1) Next, a combination of 22R and 20S oxysterols (RS, 2.5 μM each) were added in the presence or absence of SC as indicated. After 3 days, ALP activity was measured as described earlier. […] (B) M2 cells were treated as described in (A) and after 10 days matrix mineralization in cultures was quantified by a ^45Ca incorporation assay as described earlier. […] (C) M2 cells were pretreated with 20 μM SC for 4 hours, followed by the addition of RS in the presence or absence of SC as described above. After 8 days, total RNA was isolated and analyzed for osteocalcin (Osc) and […] expression by Northern blotting as previously described. Data from densitometric analysis of the Northern blot is shown in (D) as the average of duplicate samples, normalized to 18S rRNA. (E) M2 cells at confluence were pretreated for 2 hours with control vehicle (C), or PLA2 inhibitors ACA (25 μM) and AACOCF3 (AAC, 20 μM), in osteogenic medium. Next, a combination of 22R and 20S oxysterols (RS, 2.5 μM) was added in the presence or absence of the inhibitors as indicated. After 3 days, ALP activity was measured as previously described. […] (F) M2 cells were treated as described in (E). After 10 days, matrix mineralization in cultures was quantified using a ^45Ca incorporation assay as previously described. Results from a representative of three experiments are shown, reported as the mean of quadruplicate determinations ±SD, normalized to protein concentration (p<0.01 for RS vs. RS+ACA and RS+AAC).
ALP activity was measured after 2 days, as described. […] (B) M2 cells were treated as described in (A). After 10 days, matrix mineralization in cultures was quantified using a ^45Ca incorporation assay as described. […] (C) M2 cells were treated under similar conditions as those described above. […]

marrow stromal cells = experiment: Osteogenic differentiation of marrow stromal cells (marker not specified: ALP activity, osteocalcin mRNA, mineral formation)
Procedure: The purpose of the study was to identify other osteogenic and anti-adipogenic oxysterols based on the chemical structure of previously identified oxysterols. The ability of such candidate oxysterol molecules to induce the formation of osteoblastic cells in cultures of marrow stromal cells (which are progenitors of osteoblastic cells that make bone) were tested. In order to assess osteogenic differentiation of cells, one or more markers of osteogenic differentiation were measured in untreated cells and cells treated with the test oxysterols. These markers included: alkaline phosphatase activity, osteocalcin mRNA expression and mineral formation in cultures of marrow stromal cells. Activation of either one or more than one marker by a single or combination oxysterols is indicative of their osteogenic property.

[1] = system: M2-10B4 marrow stromal cells; experiment: Alkaline phosphatase (ALP) activity assay on whole cell extracts of M2-10B4 marrow stromal cells; settings: for effect on oxysterol-induced alkaline phosphatase activity: 22R+20S (RS), pretreatment with SC-560 10 μM, ACA 25 μM, AACOCF3 20 μM or PD98059 20 μM, 3 days; for reversal of the effects of COX-1 and PLA2 inhibitors on oxysterol-induced alkaline phosphatase activity: 1 μM PGE2, 25 μM arachidonic acid, data not shown
Procedure: (§2) Cells: M2-10B4 mouse marrow stromal cell line obtained from American Type Culture Collection (ATCC, Rockville, Md., U.S.A.) was derived from bone marrow stromal cells of a (C57BL/6J x C3H/HeJ) Fl mouse, and support human and murine myelopoiesis in long-term cultures (as per ATCC) and have the ability to differentiate into osteoblastic and adipocytic cells. Unless specified, these cells were cultured in RPMI 1640 containing 10% heat-inactivated FBS, and supplemented with 1 mM sodium pyruvate, 100 U/ml penicillin, and 100 U/ml streptomycin (all from Irvine Scientific).
Cells were always treated at 90% confluence. […]
as §1, with “Results from a representative of three experiments are shown, reported as the mean of quadruplicate determinations ±SD, normalized to protein concentration (p<0.01 for RS vs. RS+ACA and RS+AAC).” left out

[2] = system: M2-10B4 marrow stromal cells; experiment: Matrix mineralization (45Ca incorporation assay, von Kossa staining) in M2-10B4 marrow stromal cells; settings: for effect on oxysterol-induced mineralization: 22R+20S (RS), SC-560 10 μM, ACA 25 μM, AACOCF3 20 μM or PD98059 20 μM, 10 days
Procedure: as §2
Von Kossa and oil red O staining—Matrix mineralization in cell monolayers was detected by silver nitrate staining as previously described. Oil red O staining for detection of adipocytes was performed as previously described.
^45Ca incorporation assay—Matrix mineralization in cell monolayers was quantified using the ^45Ca incorporation assay as previously described.
After 14 days, mineralization was identified by a von Kossa staining, which appears black. FIG. 3C is a depiction of von Kossa staining of M2 cells exposed to various conditions.
After 14 days, matrix mineralization in cultures was quantified using a ^45Ca incorporation assay.
as §1
(A) M2 cells at confluence were pretreated for four hours with RPMI containing 1% FBS, followed by treatment with control vehicle or 5 μM 20S oxysterol for 1, 4, or 8 hours. Next total cell extracts were prepared and analyzed for levels of native or phosphorylated ERK (pERK) using specific antibodies as previously described. Data from a representative of four experiments are shown, each treatment shown in duplicate samples. (B) M2 cells at confluence were pretreated for 2 hours with control vehicle (C) or 20 μM PD98059 (PD) in osteogenic medium as previously described. Next, a combination of 22R and 20S oxysterols (RS, 5 μM each) were added to appropriate wells as indicated. After 10 days of incubation, matrix mineralization was quantified by the ^45Ca incorporation assay as previously described. […] (C) M2 cells at confluence were pretreated for 2 hours with 20 µM PD98059 (PD) in RPMI containing 5% FBS. Next, the cells were treated with control vehicle (C), 10 μM troglitazone (Tro), or 10 μM of 20S or 22S oxysterols, alone or in combination as indicated. After 10 days, adipocytes were visualized by oil Red O staining and quantified by light microscopy as previously described. […]

[3] = pretreatment, cyclopamine 1-10 μM, DKK-1 1 μg/ml

Molecule: CC(C)CCC[C@@H](C)[C@H]1CC[C@H]2[C@@H]3[C@H](O)C=C4C[C@@H](O)CC[C@]4(C)[C@H]3CC[C@]12C [7alpha-hydroxycholesterol, reference compound]
- levels of osteocalcin mRNA relative to the control (osteocalcin mRNA; 5 μM, eight days, M2-10B4): did not appear to significantly affect

Molecule: C[C@@H](CO)CCC[C@@H](C)[C@H]1CC[C@H]2[C@@H]3CC=C4C[C@@H](O)CC[C@]4(C)[C@H]3CC[C@]12C [26-hydroxycholesterol]
- osteogenic property, alone or in combination with originally described oxysterols (marrow stromal cells): osteoinductive

Molecule: CCCCC/C=C\C/C=C\C/C=C\C/C=C\CCCC(=O)C(F)(F)F [AACOCF3, reference compound]
- effect on oxysterol-induced alkaline phosphatase activity [1]: inhibited
- effect on oxysterol-induced mineralization [2]: inhibited

Molecule: CCCCCc1ccc(/C=C/C(=O)Nc2ccccc2C(=O)O)cc1 [ACA, reference compound]
- effect on oxysterol-induced alkaline phosphatase activity [1]: inhibited
- effect on oxysterol-induced mineralization [2]: inhibited

Molecule: CS(=O)(=O)Nc1ccc([N+](=O)[O-])cc1OC1CCCCC1 [NS-398, reference compound]
- inhibition of the osteogenic effects of oxysterol combinations (marrow stromal cells; 22R+20S and 22S+20S, SC-560 1-20 μM, NS-398 20 μM (highest non-toxic dose)): negligible inhibitory effects

Molecule: COc1cccc(-c2cc(=O)c3ccccc3o2)c1N [PD98059, reference compound]
- effect on oxysterol-induced mineralization [2]: inhibited

Molecule: CCCCC[C@H](O)/C=C/[C@H]1[C@H](O)CC(=O)[C@@H]1C/C=C\CCCC(=O)O [PGE2, prostaglandin E2, reference compound]
- reversal of the effects of COX-1 and PLA2 inhibitors on oxysterol-induced alkaline phosphatase activity [1]: reversed

Molecule: COc1ccc(-n2nc(C(F)(F)F)cc2-c2ccc(Cl)cc2)cc1 [SC-560, reference compound]
- effect on oxysterol-induced mineralization [2]: inhibited
- effect on oxysterol-induced osteocalcin gene expression (osteocalcin mRNA; 22R+20S (RS), SC-560 20 μM, 8 days, PD98059 (data not shown)): inhibited

Molecule: O=S(=O)(c1ccccc1)N(CC(F)(F)F)c1ccc(C(O)(C(F)(F)F)C(F)(F)F)cc1 [TO-901317, reference compound]
- effect on alkaline phosphatase activity ([1]; 1-10 μM): dose-dependent inhibition
- induction of mineralization ([2]; after 10 days): did not induce
- induction of osteocalcin gene expression (osteocalcin mRNA; after 10 days): did not induce

Molecule: CCCCC/C=C\C/C=C\C/C=C\C/C=C\CCCC(=O)O [arachidonic acid, reference compound]
- reversal of the effects of COX-1 and PLA2 inhibitors on oxysterol-induced alkaline phosphatase activity [1]: reversed

Molecule: C[C@]12CC[C@@H]3c4ccc(O)cc4CC[C@H]3[C@@H]1CC[C@@H]2O [beta-estradiol, reference compound]
- osteogenic properties (marrow stromal cells): did not have any osteogenic properties

Molecule: C[C@]12CC[C@H]3[C@@H](CCC4=C[C@H](O)CC[C@@H]43)[C@@H]1CC[C@@H]2O [estren, reference compound]
- osteogenic properties (marrow stromal cells): did not have any osteogenic properties

Molecule: BMP14: bone morphogenic protein 14
- synergy with oxysterols in induction of alkaline phosphatase activity [1]: synergistically induced
- synergy with oxysterols in induction of mineralization [2]: synergistically induced
- synergy with oxysterols in induction of osteocalcin (osteocalcin mRNA; eight days): synergistic induction

Molecule: DKK-1: Wnt signaling inhibitor
- effect on SS-induced alkaline phosphatase (ALP) activity [1, 3]: inhibited
- effect on SS-induced mineralization [2, 3]: inhibited
- effect on SS-induced osteocalcin mRNA expression (osteocalcin mRNA; [3]): inhibited

B1: BMP7: bone morphogenic protein 7 (protein, UniProt P18075 293-431, looked up)
Bone morphogenetic protein 7: STGSKQRSQNRSKTPKNQEALRMANVAENSSSDQRQACKKHELYVSFRDLGWQDWIIAPEGYAAYYCEGECAFPLNSYMNATNHAIVQTLVHFINPETVPKPCCAPTQLNAISVLYFDDSSNVILKKYRNMVVRACGCH
- synergy with oxysterols in induction of alkaline phosphatase activity [1]: synergistically induced
- synergy with oxysterols in induction of mineralization [2]: synergistically induced
- synergy with oxysterols in induction of osteocalcin (osteocalcin mRNA; eight days): synergistic induction
